From patent US20210164015A1, “ANTIMICROBIAL SUSCEPTIBILITY TESTING USING MICRODROPLETS” (Becton, Dickinson and Company, priority 2018, published 2021)

System: E. coli
Experiment: microdroplet antibiotic susceptibility testing (AST) using a fluorescent viability indicator
Type: cell-based
Conditions: for fluorescence intensity of microdroplets (fluorescent viability indicator): E. coli encapsulated in microdroplets
Text: FIGS. 3A-3D depict results of an embodiment of microdroplet antibiotic susceptibility testing using a fluorescent viability indicator. FIG. 3A depicts change in fluorescent intensity in microdroplets at 1-hour, 2-hour, and 3-hour time points in samples without antibiotic (condition A) and samples with antibiotic at two times MIC (condition B). FIG. 3B depicts micrographs of microdroplets under the conditions of FIG. 3A.
Some embodiments provided herein relate to a first mode for determining microbial viability. A first mode for determining microbial viability is schematically depicted in FIG. 1. As described herein, a first mode for determining microbial viability includes providing a sample having microbes therein, dividing the sample into a number of portions, preparing microdroplets encapsulating microbes from the sample, either before or after the portions are formed (FIG. 1 depicts forming portions first), contacting each portion to a different concentration of an antimicrobial of interest either before or after preparing the microdroplets (FIG. 1 depicts adding an antibiotic prior to forming microdroplets), and measuring viability of the microbes by measuring a signal of microbial viability. Measuring a signal of microbial viability may be performed by obtaining a measure of microbial viability from a discrete subset of microdroplets, or a plurality of discrete subsets of microdroplets, from a population of microdroplets. The results for the measurements from discrete subsets of microdroplets at a first time point can then be combined to generate a result for the portion of the sample from which the microdroplet(s) were taken at this first time point. This process can be repeated at additional time points to determine microbial viability in that portion over time, thereby determining the susceptibility of the microbe to a given concentration of antimicrobial. Typically, it is not necessary to measure the exact same population of microdroplets at the first and subsequent time points, as long as the population of microdroplets measured at each time point are representative of the portion of the sample from which they are taken. The results from the various portions exposed to different concentrations of antimicrobial can then be used to determine the susceptibility of the microbe to the antimicrobial. […] Conversely, an increase in the measure of microbial viability over time indicates growth of microbes in the concentration of antimicrobial present in the portion of the sample from which the measurements were made. A minimum inhibitory concentration can be determined utilizing the results of antimicrobial susceptibility and/or microbe growth from the several portions of the sample exposed to different concentrations of antimicrobial. […]

**Q.** With CC1(C)S[C@@H]2[C@H](NC(=O)[C@H](N)c3ccccc3)C(=O)N2[C@H]1C(=O)O [ampicillin] as the compound, how does the “fluorescence intensity of microdroplets (fluorescent viability indicator)” value (antibiotic at 2×MIC (Condition B), 1 hour incubation (t1)) read?
**A.** remained low

**Q.** What about the “fluorescence intensity of microdroplets (fluorescent viability indicator)” value (antibiotic at 2×MIC (Condition B), 2 hours and 3 hours incubation (t2, t3)) of the same compound?
**A.** remained low

**Q.** And the “E. coli growth in microdroplets” value (antibiotic at 2×MIC (Condition B), 2 hours and 3 hours, inferred from fluorescence intensity)?
**A.** no E. coli growth

**Q.** What about the “presence of E. coli in micrographs of microdroplets (FIG. 3D)” value (microdroplets exposed to antibiotic at 2×MIC (Condition B)) of the same compound?
**A.** no E. coli is present
